Test results reported in patent US11708367B2, “Compounds for the treatment of kinase-dependent disorders” (Exelixis, Inc., priority 2018, dated 2023).

Key:
Format in all cases: biochemical
Mer = Mer (Homo sapiens (Human), UniProt Q12866); test: Human Mer kinase assay (33P radiometric, KinaseProfiler); details: 10 μM ATP
Method: (§1) Kinase activity and compound inhibition were investigated using the ^33P-Phosphoryl transfer radiometric kinase assay, performed using the KinaseProfiler™ service of Eurofins Pharma Discovery Services UK Limited. Dose-response experiments were performed using nine compound concentrations in a 96-well microtiter plate. For each assay, all compounds were prepared to a 50× final assay concentration (50 μM) in 100% DMSO, then diluted in a half-log series, with the final top concentration at 1 μM. This working stock of the compound was added to the assay well as the first component in the reaction, followed by the remaining components as detailed in the following assay protocols below. The positive control wells (100% kinase activity) contain all components of the reaction including 2% DMSO (control for solvent effects), except the compound of interest. Blank wells contain all components of the reaction, with the reference inhibitor, staurosporine. This reference compound was used to abolish kinase activity and generated the 0% kinase activity base-line. IC50 values were calculated by nonlinear regression analysis using the sigmoidal dose-response (variable slope) curve fit on XLFit version 5.3 (ID Business Solutions).
Human Mer (residues R557-E882 with H628Q and R794A, 0.7 nM) was incubated with 8 mM MOPS pH 7.0, 0.2 mM EDTA, 30 mM NaCl, 250 μM GGMEDIYFEFMGGKKK (SEQ ID NO. 44), 10 mM magnesium acetate, and 10 μM [γ-33P-ATP]. The reaction was initiated by the addition of the Mg/ATP mix. After incubation for 40 minutes at room temperature, the reaction was stopped by the addition of phosphoric acid to a concentration of 0.5%. A reaction aliquot of 10 μL was then spotted onto a P30 filtermat and washed four times for 4 minutes in 0.425% phosphoric acid and once in methanol prior to drying and scintillation counting. Incorporated 33P was measured using the Wallac Microbeta scintillation counter (Perkin Elmer).

Human Axl = Human Axl (Homo sapiens (Human), UniProt P30530, Q764R); test: Human AXL kinase assay (33P radiometric, KinaseProfiler); details: 10 μM ATP
Method: as §1
Human Axl (residues H473-A894 with Q764R, 161 nM) was incubated with 8 mM MOPS pH 7.0, 0.2 mM EDTA, 250 μM KKSRGDYMTMQIG (SEQ ID NO. 43), 10 mM magnesium acetate and 10 μM [γ-33P-ATP]. The reaction was initiated by the addition of the Mg/ATP mix. After incubation for 40 minutes at room temperature, the reaction was stopped by the addition of phosphoric acid to a concentration of 0.5%. A reaction aliquot of 10 μL was then spotted onto a P30 filtermat and washed four times for 4 minutes in 0.425% phosphoric acid and once in methanol prior to drying and scintillation counting. Incorporated ^33P was measured using the Wallac Microbeta scintillation counter (Perkin Elmer).

Met = Met (Homo sapiens (Human), UniProt P08581); test: Human Met kinase assay (33P radiometric, KinaseProfiler); details: 10 μM ATP, read-out: c-Met IC50
Method: as §1
Human Met (residues R974-S1390 with A1209G and V1290L, 3.4 nM) was incubated with 8 mM MOPS pH 7.0, 0.2 mM EDTA, 250 µM KKKGQEEEYVFIE (SEQ ID NO. 45), 1 mM sodium orthovanadate, 5 mM […], 10 mM magnesium acetate, and 10 μM [γ-33P-ATP]. The reaction was initiated by the addition of the Mg/ATP mix. After incubation for 40 minutes at room temperature, the reaction was stopped by the addition of phosphoric acid to a concentration of 0.5%. A reaction aliquot of 10 μL was then spotted onto a P30 filtermat and washed four times for 4 minutes in 0.425% phosphoric acid and once in methanol prior to drying and scintillation counting. Incorporated 33P was measured using the Wallac Microbeta scintillation counter (Perkin Elmer).

Mer, sequence (Q12866 557-882): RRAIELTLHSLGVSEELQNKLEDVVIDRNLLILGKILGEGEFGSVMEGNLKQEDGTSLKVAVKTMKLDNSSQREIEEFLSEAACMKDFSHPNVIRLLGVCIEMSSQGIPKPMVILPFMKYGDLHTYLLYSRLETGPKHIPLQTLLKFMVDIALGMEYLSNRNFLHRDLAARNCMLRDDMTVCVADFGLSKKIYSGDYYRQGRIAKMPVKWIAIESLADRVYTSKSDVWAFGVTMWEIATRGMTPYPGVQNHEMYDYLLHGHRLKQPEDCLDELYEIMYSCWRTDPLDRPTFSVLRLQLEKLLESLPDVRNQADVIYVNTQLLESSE
Human Axl, sequence (P30530 473-894 Q764R): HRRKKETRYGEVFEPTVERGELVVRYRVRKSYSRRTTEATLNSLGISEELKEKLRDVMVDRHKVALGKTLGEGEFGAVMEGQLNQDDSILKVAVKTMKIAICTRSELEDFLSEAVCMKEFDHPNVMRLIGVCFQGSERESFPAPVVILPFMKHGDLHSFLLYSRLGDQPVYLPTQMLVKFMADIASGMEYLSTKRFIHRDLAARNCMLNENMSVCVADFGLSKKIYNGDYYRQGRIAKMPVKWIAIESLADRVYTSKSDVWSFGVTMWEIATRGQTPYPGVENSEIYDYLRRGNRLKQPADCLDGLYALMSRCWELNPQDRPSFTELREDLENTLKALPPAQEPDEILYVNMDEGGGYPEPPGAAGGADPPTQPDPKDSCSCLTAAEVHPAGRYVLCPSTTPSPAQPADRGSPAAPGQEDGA

SMILES	IC50 (Mer) [nM]	IC50 (Human Axl) [nM]	IC50 (Met) [nM]
N#Cc1ccc2ncnc(Oc3ccc(NC(=O)C4(C(=O)Nc5ccc(F)cc5)CC4)cc3)c2c1 [Compound 106, 1-N-[4-(6-cyanoquinazolin-4-yl)oxyphenyl]-1-N′-(4-fluorophenyl)cyclopropane-1,1-dicarboxamide]	100 to 1000	> 1000	> 1000
O=C(Nc1ccc(F)cc1)C1(C(=O)Nc2ccc(Oc3ncnc4cc(Cl)cnc34)cc2)CC1 [Compound 12, 1-N-[4-(7-chloropyrido[3,2-d]pyrimidin-4-yl)oxyphenyl]-1-N′-(4-fluorophenyl)cyclo-propane-1,1-dicarboxamide]	100 to 1000	> 1000	100 to 1000
Cc1cc2ncnc(Oc3ccc(NC(=O)C4(C(=O)Nc5ccc(F)cc5)CC4)cc3)c2nc1C [Compound 43, 1-N-[4-(6,7-dimethyl-pyrido[3,2-d]pyrimidin-4-yl)oxyphenyl]-1-N′-(4-fluorophenyl)cyclo-propane-1,1-dicarboxamide]	100 to 1000	100 to 1000	100 to 1000
COc1cc2ncnc(Oc3ccc(NC(=O)C4(C(=O)Nc5ccc(F)cc5)CC4)cc3)c2nc1C#N [Compound 57, 1-N-[4-(6-cyano-7-methoxypyrido[3,2-d]pyrimidin-4-yl)oxyphenyl]-1-N′-(4-fluorophenyl)cyclopropane-1,1-dicarboxamide]	10 to 100	100 to 1000	100 to 1000
O=C(Nc1ccc(F)cc1)C1(C(=O)Nc2ccc(Oc3ncnc4cccnc34)cc2)CC1 [Compound 7, 1-N′-(4-fluorophenyl)-1-N-(4-pyrido[3,2-d]pyrimidin-4-yloxyphenyl)cyclopropane-1,1-dicarboxamide]	> 1000	> 1000	100 to 1000
O=C(Nc1ccc(F)cc1)C1(C(=O)Nc2ccc(Oc3ncnc4cc5c(nc34)CCCC5)cc2)CC1 [Compound 52, 1-N′-(4-fluorophenyl)-1-N-[4-(6,7,8,9-tetrahydro-pyrimido[5,4-b]quinolin-4-yloxy)phenyl]cyclo-propane-1,1-dicarboxamide]	100 to 1000	100 to 1000	100 to 1000

Other lines, results leading:

IC50 (Mer) [nM]	IC50 (Human Axl) [nM]	IC50 (Met) [nM]	SMILES
100 to 1000	100 to 1000	100 to 1000	O=C(Nc1ccc(F)cc1)C1(C(=O)Nc2ccc(Oc3ncnc4cnccc34)cc2)CC1 [Compound 85, 1-N′-(4-fluorophenyl)-1-N-(4-pyrido[3,4-d]pyrimidin-4-yloxyphenyl)cyclopropane-1,1-dicarboxamide]
100 to 1000	100 to 1000	100 to 1000	O=C(Nc1ccc(F)cc1)C1(C(=O)Nc2ccc(Oc3ncnc4ccncc34)cc2)CC1 [Compound 95, 1-N′-(4-fluorophenyl)-1-N-(4-pyrido[4,3-d]pyrimidin-4-yloxyphenyl)cyclo-propane-1,1-dicarboxamide]
100 to 1000	100 to 1000	100 to 1000	O=C(Nc1ccc(F)cc1)C1(C(=O)Nc2ccc(Oc3ncnc4cc(Cl)ncc34)cc2)CC1 [Compound 101, 1-N-[4-(7-chloropyrido[4,3-d]pyrimidin-4-yl)oxy-phenyl]-1-N′-(4-fluorophenyl)cyclo-propane-1,1-dicarboxamide]
